Laboratory results: patent US10184933B2, “Compositions, systems and methods for gene expression noise drug screening and uses thereof” (priority 2013, dated 2019)
Entries after “also recorded” stand apart in the source; their conditions may differ. Structures can show the parent of a compound that is named as a salt. Where two headings read alike, the source gives them in different places.

Legend:
[1] = system: HIV-1 LTR promoter; format: cell-based
[2] = system: latent HIV-1 in JLat 8.6 cells; format: cell-based
[3] = system: HIV-1 LTR promoter; experiment: Single-cell time-lapse fluorescence microscopy of polyclonal LTR d2GFP cell population; format: cell-based
Text: Lentiviral vectors expressing the LTR-GFP cassette in the absence of Tat were described (Weinberger et al., 2005, Cell, 122(2):169-182) and used to infect 5×10^5 Jurkat cells at a multiplicity of infection <0.1, resulting in 25,000-50,000 infected cells each presumably with a unique integration site. Cells were then sorted by FACS to isolate green fluorescent protein-labeled (GFP+) cells and fluorescently imaged on glass-bottom dishes in RPMI 1640 with 10% fetal calf serum and 1% penicillin-streptomycin and 10 μM of VM at t=0 h for the population which was pre-treated with VM 1 day before imaging. […] For each trajectory, noise autocorrelation [Φ(t)] and magnitude (CV^2) were calculated using an established noise-processing algorithm (Weinberger at al., 2008, Nature Genetics, 40(4):466-470; Dar at al., 2012, Proc Natl Acad Sci USA 109:17454-17459; Boehm et al., 2013, Cell Cycle 12:452-462).
To assess whether identified VMs are specific to the integration site of the drug screen target, a polyclonal LTR d2GFP population was treated with select VM hits and imaged using time-lapse single cell fluorescence microscopy (Dar et al., 2012, Proc Natl Acad Sci USA 109:17454-17459; Boehm et al., 2013, Cell Cycle 12:452-462) (FIG. 6C). […]

[4] = system: JLat cell line 8.6
Protocol: FIG. 17 schematically depicts reactivation percentage versus drug toxicity for conventional reactivation cocktails (e.g. TNF+Prostratin, SAHA+Prostratin, SAHA+TNF+Prostratin) and 21 cocktails containing noise-enhancer compounds in combination with TNF+Prostratin. Controls: TNF alone, Prostratin alone, and Untreated, as indicated. Measurements were performed in duplicate on JLat cell line 8.6 after 48 h treatment. […] Details are described, e.g., in Example 9.
(§1) To test whether reactivation could be further optimized, the doses of noise enhancers and activators were varied (FIG. 14).

[5] = system: latent HIV-1 in JLat cell lines; experiment: Dose response of reactivation in JLat cell lines (FIG. 14); format: cell-based; settings: with TNF or Prostratin
Protocol: FIGS. 14A and 14B schematically depict dose response curves for compounds V14 and V82 with TNF and Prostratin. FIG. 14A schematically depicts V14 dose response curves with four different concentrations of TNF (left) and five different concentrations of Prostratin (right) at 24 and 48 hours. […] Details are described, e.g., in Example 9.
as §1

[6] = system: HIV-1 LTR promoter; experiment: Two-reporter system (LTR-d2GFP and LTR-mCherry) noise measurement; format: cell-based; settings: known transcriptional activators, FIG. 6E
Protocol: Without being bound by theory, a destabilized reporter is required to observe transcriptional noise with shorter time scales. GFP noise magnitude (quantified by the variance over the mean fluorescence squared, CV^2) and mean fluorescence were measured by high-throughput flow cytometry 24 hours post 10 uM drug exposure. To control for extrinsic variability in gene expression due to cell volume and state a conservative gating on the population forward versus side scatter was applied (See General Methods). A second LTR driving a long-lived mCherry reporter was integrated and screened alongside the destabilized reporter drug target to control for fluctuations in global resources and post-transcriptional noise sources (FIG. 6E).
To distinguish between compounds that primarily target transcription versus post-transcriptional processes and global resources (extrinsic noise) a second reporter of the LTR promoter driving a stable mCherry gene was included in the same targeted cell population used in the drug noise screen (FIG. 6E). The stable reporter averages out and is unaffected by fluctuations due to episodic transcription. Theory predicts that the destabilized d2GFP reporter can detect transcriptional bursting noise contributions (γp>>kon,koff, where γp is the fluorescent reporter degradation rate) while the two reporters together will move their noise magnitudes to changes in non-transcriptional noise sources. Filtering out non-transcriptional noise signatures of VM hits increases the probability for synergistic reactivation of latency. Noise from the two reporters was compared using the same processing as the LTR-d2GFP. The LTR-mCherry ΔCV^2 of the 85 selected VMs primarily land along the ΔCV^2 d2GFP axis. […]. Of these 25 compounds 15 were identified as modifiers of cell cycle, ATP, inflammation, post-translational modifications, and translation.
In addition to the GFP reporter in the LTR-d2GFP cell line, an LTR driving a long half-life mCherry reporter was present in the cell line. […] To remove compounds that altered CV^2 post transcriptionally, compounds that affected the CV^2 long-lived red reporter while conserving its mean mCherry level were removed. This method continues development of the original and decade-old 2-reporter system for intrinsic versus extrinsic noise measurements in bacteria (Elowitz et al., (2002) Science 297:1183-1186).

[7] = in vivo, cited from earlier work
[8] = system: latent HIV-1 in primary human CD4+ T cells; format: cell-based
Text: (§2) Details on the Siliciano T-Cell model of HIV-1 latency can be found in Yang et al., 2009, J Clin Invest 119:3473-3486. Details on the Planelles T-Cell model of HIV-1 latency can be found in Bosque and Planelles, 2009, Blood 113:58-65.
(§3) To test if VMs enhance reactivation in a primary cell model of latency 14 VMs were selected from the 85 VMs initially screened on the JLat cell line. […] Two separate primary cell models of latency were screened (Bosque and Planelles, 2009, Blood 113:58-65; Yang et al., 2009, J Clin Invest 119:3473-3486) The Siliciano model of latency is generated using primary human CD4+ T cells which are transduced with Bcl-2 to allow long-term in vitro survival. The Bcl-2^+ cells are activated with -CD3/-CD28 antibody and infected with a GFP expressing virus. Cells remain in culture for over a month to allow transition into resting memory states and then sorted for GFP-cells after which the sorted cells are the latent pool of cells tested for reactivation. […] Reactivation experiments were designed with a positive control (PMA with Ionomycin or -CD3/-CD28 activation) as well as media only or VM treatment measurements.

[9] = system: latent HIV-1 in primary T-cells; format: cell-based
Protocol: FIG. 18A schematically depicts a primary T-cell model of HIV-1 latency 48 h after reactivation with PMA or a subset of noise enhancers (% reactivation percentage is calculated relative to maximal reactivation potential). […] The horizontal line represents the mean calculated Bliss Independence Score (C. I. Bliss, Ann. Appl. Biol. 26:585-615 (1939)), a measure for strict additivity for all of the compounds. FIG. 18B schematically depicts stochastic simulations of noise suppression, which reduces noise without altering the mean expression level but limits reactivation induced by an activator. […] Details are described, e.g., in Example 10.

[10] = system: latent HIV-1 in primary cells of two donors; format: cell-based
Text: as §2, §3

[11] = Pharmakon 1600 library, 10 uM, 24 hours, FIG. 10

O=C(O)COCCN1CCN(C(c2ccccc2)c2ccc(Cl)cc2)CC1 (stereo not drawn) [V11, cetirizine hydrochloride]
gene expression noise versus compound concentration [1]: increasing trend in gene expression noise
identified as variability enhancer (VE) in noise screen [1]: variability enhancers
concentration at peak in HIV-1 reactivation [2]: 25 µM
synergy in reactivation of HIV-1 latency [2]: synergized
reactivation relative to Prostratin alone ([2]; hydrochloride): about twice; also recorded: about three times
reactivation relative to TNFα alone ([2]; hydrochloride): about twice; also recorded: about three times
reactivation relative to TNFα or Prostratin alone (dose response surface) ([2]; hydrochloride): more than three times; also recorded: almost double; also recorded: greater reactivation
reactivation when combined with TNFα and Prostratin ([2]; hydrochloride): further increase reactivation; also recorded: increased activation
high frequency noise magnitude (HF-CV^2) versus untreated polyclonal population ([3]; hydrochloride): increased high frequency noise magnitude; also recorded: increased noise magnitude trends above the untreated population
viability when combined with TNFα and Prostratin [4]: without significant reduction in viability

O=c1[nH]c(=O)n([C@H]2C[C@H](O)[C@@H](CO)O2)cc1I [V82, idoxuridine]
concentration at maximal reactivation ([5]; 48 hours, two JLat cell lines): 50 µM
identified as variability enhancer (VE) in noise screen [1, 11]: variability enhancers
synergy in reactivation of HIV-1 latency [2]: synergized

CCCC(CCC)C(=O)O [VPA, 2-propylpentanoic acid]
variability in gene expression (noise magnitude) ([1]; known transcriptional modulators applied to the isoclone target, FIG. 6D): increase variability in gene expression; also recorded: variability enhancers
d2GFP noise [6]: increase d2GFP noise
mCherry noise [6]: decrease mCherry noise
time of peak serum levels ([7]; po): 1 to 4 h
serum half-life [7]: 6 to 16 h

CC(=O)O[C@@]12CO[C@@H]1C[C@H](O)[C@@]1(C)C(=O)[C@H](O)C3=C(C)[C@@H](OC(=O)[C@H](O)[C@@H](NC(=O)OC(C)(C)C)c4ccccc4)C[C@@](O)([C@@H](OC(=O)c4ccccc4)[C@H]21)C3(C)C [V1, docetaxel]
identified as variability enhancer (VE) in noise screen [1, 11]: variability enhancers
high frequency noise magnitude (HF-CV^2) versus untreated polyclonal population ([3]; 10 μM, 24 hour pretreatment, tracked 12 hours, ~500 cells): increased high frequency noise magnitude; also recorded: increased noise magnitude trends above the untreated population

C[C@]12CC[C@@H]3c4ccc(OC(=O)N(CCCl)CCCl)cc4CC[C@H]3[C@@H]1CC[C@@H]2O [V3, estramustine]
identified as variability enhancer (VE) in noise screen [1, 11]: variability enhancers
synergy with activators [8]: synergized with either PMA, prostratin or bryostatin; also recorded: appear to synergize with all three activators
synergy in reactivation of HIV-1 latency [2]: synergized

COC(=O)Nc1nc2ccc(C(=O)c3ccccc3)cc2[nH]1 [V7, mebendazole]
identified as variability enhancer (VE) in noise screen [1, 11]: variability enhancers
synergy with PMA [9]: reactivating half of the remaining cells that PMA alone did not reactivate
increased activation with PMA ([9]; 48 h, relative to maximal reactivation potential): ~20%
synergy in reactivation of HIV-1 latency [2]: synergized

C[C@]12C=CC(=O)N[C@@H]1CC[C@@H]1[C@@H]2CC[C@]2(C)[C@@H](C(=O)Nc3cc(C(F)(F)F)ccc3C(F)(F)F)CC[C@@H]12 [V10, dutasteride]
identified as variability enhancer (VE) in noise screen [1]: variability enhancers
synergy with activators [8]: synergized with either PMA, prostratin or bryostatin; also recorded: appear to synergize with all three activators
synergy in reactivation of HIV-1 latency [2]: synergized

C[C@@H]1CC[C@H]2[C@@H](C)C(=O)O[C@@H]3O[C@@]4(C)CC[C@@H]1[C@]32OO4 [V14, artemisinin]
concentration at peak activation ([5]; 24 and 48 hours): about 10 μM
identified as variability enhancer (VE) in noise screen [1, 11]: variability enhancers
synergy with bryostatin [10]: synergized with bryostatin
synergy in reactivation of HIV-1 latency [2]: synergized
reactivation when combined with TNFα and Prostratin ([2]; VM + TNFα + Prostratin, 48 hours): further increase reactivation; also recorded: increased activation
viability when combined with TNFα and Prostratin [4]: without significant reduction in viability

O=C(O)Cc1ccc(-c2ccccc2)cc1 [V4, felbinac]
identified as variability enhancer (VE) in noise screen [1, 11]: variability enhancers
synergy with bryostatin [10]: synergized with bryostatin
synergy in reactivation of HIV-1 latency [2]: synergized
